Tested on: immature maize embryos (variety: A188)
Assay: Effect of auxin in coculture medium on regeneration and GUS gene expression in whole plants regenerated without selection from Agrobacterium-inoculated immature maize embryos
Assay type: cell-based
Conditions: for Number of immature embryos found to regenerate into whole plants on LSZ medium / Number of immature embryos whose leaf pieces were all GUS-negative / Number of immature embryos with at least one leaf piece showing GUS gene expression: auxin 6.8 μM in coculture medium, 24 immature embryos per auxin; for Number of immature embryos found to regenerate into whole plants on LSZ medium: Agrobacterium LBA4404 (pSB124); for Efficiency of regeneration into whole plants (in words) / Percentage of regenerated plants showing expression of the transgene (in words): comparison of auxins in coculture medium
Procedure: Maize (variety: A188) immature embryos (1.0 to 1.5 mm in size) at 7 to 14 days after pollination were aseptically collected and washed once with LS-inf liquid medium, followed by pretreatment (thermal treatment at 46° C. for 3 minutes) to increase gene transfer efficiency for transformation enhancement. In LS-inf liquid medium containing 100 μM acetosyringone, Agrobacterium strain LBA4404 (pSB124) (Komari et al., 1996) was suspended to prepare an inoculum.
The thermally-treated immature embryos were mixed with the inoculum, vortexed for 30 seconds, and then allowed to stand for 5 minutes at room temperature. The Agrobacterium-inoculated immature embryos (24 in total) were placed, with their scutella facing up, onto a coculture medium containing dicamba (3,6-dichloro-o-anisic acid) or picloram (4-amino-3,5,6-trichloropicolinic acid) at a concentration of 6.8 μM in LS-AS medium (Ishida et al. 1996; solidified with 8 g/l agarose) which had been prepared to exclude 2,4-D (2,4-dichlorophenoxyacetic acid) and contain 5 μM AgNO3 and 5 μM CuSO4.
On the other hand, LS-AS medium containing 5 μM AgNO3 and 5 μM CuSO4 was supplemented with 1.5 mg/l (6.8 μM) 2,4-D as an auxin member and also used for testing, 24 immature embryos were placed onto this medium.
The immature embryos cultured in the dark at 25° C. for 7 days were placed onto LSZ medium (Ishida et ai., 1996) containing 10 μM CuSO4, and then cultured in the light at 25° C. for about 2 weeks. Leaves of the regenerated whole plants were partially excised and immersed in 0.1 M phosphate buffer (pH 6.8) containing 0.1% Triton X-100 and then allowed to stand at 37° C. for 1 hour. The phosphate buffer was removed and replaced by another phosphate buffer containing 1.0 mM 5-bromo-4-chloro-3-indolyl-β-D-glucuronic acid (X-gluc) and 20% methanol. After treatment at 37° C. for 24 hours, GUS gene expression was analyzed.

| SMILES | Number of immature embryos found to regenerate into whole plants on LSZ medium (no selection) | Number of immature embryos whose leaf pieces were all GUS-negative (no selection) | Number of immature embryos with at least one leaf piece showing GUS gene expression (no selection) | Efficiency of regeneration into whole plants (in words) | Percentage of regenerated plants showing expression of the transgene (in words) | Number of immature embryos that did not regenerate into plants on LSZ medium (auxin 1.5 mg/l (6.8 μM) in coculture medium, 24 immature embryos, no selection) |
| --- | --- | --- | --- | --- | --- | --- |
| COc1c(Cl)ccc(Cl)c1C(=O)O [dicamba, 3,6-dichloro-o-anisic acid] | 24 | 13 | 11 | higher efficiency | increased percentage |  |
| Nc1c(Cl)c(Cl)nc(C(=O)O)c1Cl [picloram, 4-amino-3,5,6-trichloropicolinic acid] | All of the immature embryos | 15 | 9 | higher efficiency | increased percentage |  |
| O=C(O)COc1ccc(Cl)cc1Cl [2,4-D, 2,4-dichlorophenoxyacetic acid] | 21 |  | 4 |  | slightly lower | 3 |

Source: patent US20130125265A1, “AGROBACTERIUM-MEDIATED METHOD FOR PRODUCING TRANSFORMED PLANT” (JAPAN TOBACCO INC., priority 2008, published 2013)
